Values quoted from earlier work, collected in patent US20230321012A1 (priority 2021, published 2023).

Tested on: NCI 60-cell line panel
Details: used up to 5 mM, any cell line tested; cited from earlier work

## NCCCC(N)(C(=O)O)C(F)F (stereo not shown) [DFMO, difluoromethylornithine]
  growth inhibitory effect: no growth inhibitory effect
